Results as given in US7553974B2, “Crystal of (2R,4R)-monatin potassium salt and sweetener composition containing same” (Ajinomoto Co., Inc., priority 2004, dated 2009).
Structures can show the parent of a compound that is named as a salt. Where two headings read alike, the source gives them in different places.

Assays:
[1] = type: physicochemical; details: for area %: HPLC area of (2R,4R)-monatin relative to total peak area, 210 nm, 60° C. preservation sample; for area % / weight change (%): 1 week; for weight change (%): HPLC quantitation value of 60° C. sample, room temperature sample = 100%
Description: The crystals of the (2R,4R)-monatin dipotassium salt obtained in Example 1 and Example 9, and crystals of the (2R,4R)-monatin monopotassium salt produced according to the production method described in the aforementioned WO03/045914 were subjected to a preservation stability test. Each sample (50 mg) was placed in a 4 ml vial (with screw cap) and stored at 60° C. and room temperature for 1 week.
A chromatogram for each sample was measured by HPLC, and the HPLC quantitation value of the 60° C. preservation sample, when that of the room temperature preservation sample was 100%, was shown as a weight change. In addition, an HPLC chromatogram of each sample was measured and the ratio of the area value of (2R,4R)-monatin relative to the total area value of the entire peaks detected (detection wavelength: 210 nm) in the 60° C. preservation sample was expressed as the area %.

[2] = type: physicochemical; details: for transmittance (%): 1 g/dl in H2O, room temperature, 490 nm
Excerpt: The crystals of the (2R,4R)-monatin dipotassium salt obtained in Example 9, (2R,4R)-monatin, and crystals of the (2R,4R)-monatin monopotassium salt produced according to the production method described in the aforementioned WO03/045914 were subjected to a coloring test. Measurement Method of Coloring Test: • Measurement device: CARY 50 UV-VIS spectrophotometer manufactured by Varian Technologies Japan Limited; • Concentration: 1 g/dl; • Solvent: H2O; • Temperature: room temperature; • Measurement wavelength: 490 nm; and • Measurement interval: 30 minutes.

[3] = type: physicochemical
Description: The crystals of the (2R,4R)-monatin dipotassium salt obtained in Example 9 and crystals of the (2R,4R)-monatin monopotassium salt were tested for solubility using the following conditions” • Temperature: 20° C.; and
Solubility measurement method: Two test tubes for each of 0, 20, 40, 60, 80, 100% ethanol, which contained 2 ml thereof were prepared. The crystals of the (2R,4R)-monatin dipotassium salt and crystals of the (2R,4R)-monatin monopotassium salt were added thereto in an amount prohibiting complete dissolution. The test tubes were capped and stirred overnight. Then, the mixture was passed through a filter (0.45 μm) and the filtrate was analyzed.

| SMILES | area % [1] [%] | weight change (%) [1] [%] | transmittance (%) ([2]; time 0.0 hour) | transmittance (%) ([2]; time 2.0 hour) | transmittance (%) ([2]; time 4.0 hour) | transmittance (%) ([2]; time 6.0 hour) | transmittance (%) ([2]; time 8.0 hour) | transmittance (%) ([2]; time 10.0 hour) | transmittance (%) ([2]; time 12.0 hour) | transmittance (%) ([2]; time 14.0 hour) | transmittance (%) ([2]; time 16.0 hour) | transmittance (%) ([2]; time 18.0 hour) | transmittance (%) ([2]; time 20.0 hour) | transmittance (%) ([2]; time 22.0 hour) | area % ([1]; dipotassium salt) [%] | weight change (%) ([1]; dipotassium salt) | preservation stability [1] | solubility [3] | color stability [2] |
| --- | --- | --- | --- | --- | --- | --- | --- | --- | --- | --- | --- | --- | --- | --- | --- | --- | --- | --- | --- |
| NC(CC(O)(Cc1c[nH]c2ccccc12)C(=O)O)C(=O)O [(2R,4R)-monatin monopotassium salt] | 99.8 | 100 | 100.02 | 99.75 | 99.28 | 98.42 | 97.98 | 96.86 | 95.61 | 94.35 | 92.97 | 91.49 | 90.05 | 88.75 |  |  |  |  |  |
| N[C@H](C[C@](O)(Cc1c[nH]c2ccccc12)C(=O)[O-])C(=O)[O-].[K+].[K+] [Example 1, (2R,4R)-monatin dipotassium salt] |  |  |  |  |  |  |  |  |  |  |  |  |  |  | 98.4 | 99 |  |  |  |
| N[C@H](C[C@](O)(Cc1c[nH]c2ccccc12)C(=O)[O-])C(=O)[O-].[K+].[K+] [Example 9, (2R,4R)-monatin dipotassium salt] | 99.6 | 103 | 99.63 | 99.60 | 99.51 | 99.43 | 99.44 | 99.44 | 99.41 | 99.42 | 99.39 | 99.35 | 99.39 | 99.38 |  |  | almost of the same level | superior | superior |
